# Patent EP0982397A1, “Inhibition of contact system activation” (Stichting Sanquin Bloedvoorziening, priority 1998, dated 2000)
# Peptide text beside a SMILES is read from it.
# Assays:
# contact system [1] = assay: Inhibition by synthetic peptides of contact system activation in EDTA-plasma induced by kaolin; assay type: biochemical, human; conditions: Activator kaolin
# Experimental: • Figure 1: Effects of mAb KOK5 on activation of purified FXII. • A: Activation by kallikrein: Twenty-five µl of prewarmed FXII (125 nM), 25 µl of serial dilutions of mAb KOK5, 25 µl of prewarmed kallikrein (25 nM) and 25 µl of buffer yielding final concentrations of 50 mM Tris-HCl, 150 mM NaCl, 0.1% (wt/vol) Tween-20, pH 7.8, were incubated for 30 min at 37°C. Thereafter, 50 µl of assay mixture containing the chromogenic substrate S-2302 were added and the increase in absorbance at 405 nm at 37°C was recorded. Results are expressed as percentage of the total amount of FXII present in the mixture (as determined by limited digestion with 10 nM trypsin), and represent the mean ± SE of two experiments. […] Thereafter, 50 µl of assay mixture containing S-2302 were added and the increase in absorbance at 405 nm at 37°C was recorded. […] The reaction was stopped by adding 120 µl of stop buffer (PBS, 0.1 mg/ml SBTI, Polybrene 0.05% wt/vol) and the amount of FXIIa-C1-inhibitor (+---+), kallikrein-C1-inhibitor (o- -o) and factor XIa-C1-inhibitor (●- -●) complexes generated was measured. […] In addition 50 µl of purified FXII (500 nM) were first incubated for 2 min with kaolin and then with serial dilutions of mAb KOK5 for 15 min (+---+); whereafter the residual FXII clotting activity was measured. Results are expressed as percentage of inhibition compared to the clotting activity measured in the absence of mAbs and are the mean ± SE of two experiments. • Figure 4. […] After 10 min at room temperature tubes were centrifuged for 2 min at 10,000 g and the pellets were counted for radioactivity. Binding was expressed as the percentage of the total counts that were found in the pellet in the absence of mAbs. […] Bound FXII was detected by subsequent incubation with ^125I-anti-FXII antibodies. Results are expressed as percentage of the ^125I-anti-FXII added and represent the means of two experiments. • Figure 6. […]
# FXII = assay: Binding of 125I-FXII to kaolin; parameters: species or system human
# Experimental: • Figure 1: Effects of mAb KOK5 on activation of purified FXII. • A: Activation by kallikrein: Twenty-five µl of prewarmed FXII (125 nM), 25 µl of serial dilutions of mAb KOK5, 25 µl of prewarmed kallikrein (25 nM) and 25 µl of buffer yielding final concentrations of 50 mM Tris-HCl, 150 mM NaCl, 0.1% (wt/vol) Tween-20, pH 7.8, were incubated for 30 min at 37°C. Thereafter, 50 µl of assay mixture containing the chromogenic substrate S-2302 were added and the increase in absorbance at 405 nm at 37°C was recorded. Results are expressed as percentage of the total amount of FXII present in the mixture (as determined by limited digestion with 10 nM trypsin), and represent the mean ± SE of two experiments. […] Thereafter, 50 µl of assay mixture containing S-2302 were added and the increase in absorbance at 405 nm at 37°C was recorded. […] The reaction was stopped by adding 120 µl of stop buffer (PBS, 0.1 mg/ml SBTI, Polybrene 0.05% wt/vol) and the amount of FXIIa-C1-inhibitor (+---+), kallikrein-C1-inhibitor (o- -o) and factor XIa-C1-inhibitor (●- -●) complexes generated was measured. Results, expressed as percentage of the maximum amount of complexes generated in pooled plasma by DS500 (50 µg/ml), represent the mean values ± S.D. from three different experiments. • Figure 3. […] Binding was expressed as the percentage of the total counts that were found in the pellet in the absence of mAbs. […]
# contact system [2] = assay: Inhibition by synthetic peptides of contact system activation in EDTA-plasma induced by DS500; assay type: biochemical, human; conditions: Activator DS500
# Experimental: • Figure 1: Effects of mAb KOK5 on activation of purified FXII. • A: Activation by kallikrein: Twenty-five µl of prewarmed FXII (125 nM), 25 µl of serial dilutions of mAb KOK5, 25 µl of prewarmed kallikrein (25 nM) and 25 µl of buffer yielding final concentrations of 50 mM Tris-HCl, 150 mM NaCl, 0.1% (wt/vol) Tween-20, pH 7.8, were incubated for 30 min at 37°C. Thereafter, 50 µl of assay mixture containing the chromogenic substrate S-2302 were added and the increase in absorbance at 405 nm at 37°C was recorded. Results are expressed as percentage of the total amount of FXII present in the mixture (as determined by limited digestion with 10 nM trypsin), and represent the mean ± SE of two experiments. […] Thereafter, 50 µl of assay mixture containing S-2302 were added and the increase in absorbance at 405 nm at 37°C was recorded. […] The reaction was stopped by adding 120 µl of stop buffer (PBS, 0.1 mg/ml SBTI, Polybrene 0.05% wt/vol) and the amount of FXIIa-C1-inhibitor (+---+), kallikrein-C1-inhibitor (o- -o) and factor XIa-C1-inhibitor (●- -●) complexes generated was measured. Results, expressed as percentage of the maximum amount of complexes generated in pooled plasma by DS500 (50 µg/ml), represent the mean values ± S.D. from three different experiments. • Figure 3. […] In addition 50 µl of purified FXII (500 nM) were first incubated for 2 min with kaolin and then with serial dilutions of mAb KOK5 for 15 min (+---+); whereafter the residual FXII clotting activity was measured. Results are expressed as percentage of inhibition compared to the clotting activity measured in the absence of mAbs and are the mean ± SE of two experiments. • Figure 4. […] After 10 min at room temperature tubes were centrifuged for 2 min at 10,000 g and the pellets were counted for radioactivity. Binding was expressed as the percentage of the total counts that were found in the pellet in the absence of mAbs. […] Bound FXII was detected by subsequent incubation with ^125I-anti-FXII antibodies. Results are expressed as percentage of the ^125I-anti-FXII added and represent the means of two experiments. • Figure 6. […]
# mAb KOK5 = assay: cell-based or functional assay
# [3] = read-out: FXIIa-C1inh (IC50 values)
# [4] = read-out: FXIa-C1inh (IC50 values)
# [5] = read-out: kal-C1inh (IC50 values)
IC50 (contact system [1]; [3]) [mM],IC50 (contact system [1]; [4]) [mM],IC50 (contact system [1]; [5]) [mM],IC50 relative to that of FXII itself (times higher) (FXII; inhibition of binding of 125I-FXII to kaolin),"IC50 (FXII; synthetic peptides, read-out: IC50, inhibition of binding of 125I-FXII to kaolin) [mM]",IC50 (contact system [2]; [3]) [mM],IC50 (contact system [2]; [4]) [mM],IC50 (contact system [2]; [5]) [mM],inhibition of FXII activation by kallikrein in the presence of mAb KOK5 (IC50) (mAb KOK5) [mM],Molecule
7 ± 1.4,7.5 ± 0.5,6 ± 2.1,"10,000 times",0.9,3.15 ± 0.85,6.75 ± 1.25,5.25 ± 2.7,,C[C@@H](O)[C@H](NC(=O)[C@H](CS)NC(=O)[C@H](CCC(N)=O)NC(=O)[C@H](Cc1c[nH]cn1)NC(=O)[C@@H](N)CO)C(=O)N[C@@H](Cc1c[nH]cn1)C(=O)N[C@@H](CCCNC(=N)N)C(=O)N[C@@H](CCCCN)C(=O)N[C@@H](CS)C(=O)N[C@@H](Cc1ccc(O)cc1)C(=O)O [SHQCTHRKCY] (H-SHQCTHRKCY-OH)
,,,,,,,,0.05,AEGEFRFQTPQWE [synthetic peptide …]
